Consider 20 compounds from patent US20210269434A1, “TRICYCLIC COMPOUNDS AS INHIBITORS OF KRAS” (Incyte Corporation, priority 2020, published 2021).

Where two headings read alike, the source gives them in different places. Some results are limits rather than exact numbers.

The subject of test [1] is MIA PaCa-2 (KRAS G12C) cells. The experiment in a line: Cellular pERK HTRF assay (KRAS_G12C pERK). Format: cell-based, human. The settings on record: read-out: G12C_pERK. The essentials:
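MIA PaCa-2 cells plated overnight, then exposed to compound for 4 h at 37 °C (G12C compounds). Phospho-ERK1/2 measured in lysates by HTRF (665/620 nm) after overnight antibody incubation; IC50 from percent inhibition versus log concentration.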

The target of test [2] is KRAS G12C (Homo sapiens, UniProt P01116, G12C). The experiment in a line: GDP-GTP exchange assay (KRAS_G12C exchange). The format is biochemical. The settings on record: bodipy-GDP loaded KRAS G12C 2.5 nM, SOS1 150 nM, GppNHp; 2 hours pre-incubation, 2 hours reaction; read-out: G12C_exchange. In outline:
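Fluorescence exchange of bodipy-GDP for GppNHp, SOS1-driven, read at 485/520 nm; IC50 from four-parameter variable-slope fit. Both mutants used 2.5 nM final labelled protein and a 2 h compound pre-incubation. G12C reaction had 500 uM GppNHp and 150 nM SOS1 for 2 h; G12D ran 4 h.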

The mark [3] stands for this setting: Homo sapiens, MIA PaCa-2, 4 hours incubation.

Sequence of KRAS G12C (P01116 1-188 isoform P01116-2 G12C): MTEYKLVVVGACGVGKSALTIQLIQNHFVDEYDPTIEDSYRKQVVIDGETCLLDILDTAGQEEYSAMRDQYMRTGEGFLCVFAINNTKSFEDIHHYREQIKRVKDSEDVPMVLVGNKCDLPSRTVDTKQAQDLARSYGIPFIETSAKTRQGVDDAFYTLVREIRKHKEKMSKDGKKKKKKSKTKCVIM

Take `C=CC(=O)N1CC[C@H](n2nnc3c(N4CC(C)(N(C)C)C4)nc4c(F)c(-c5cccc(C)c5Cl)c(C(F)(F)F)cc4c32)C[C@H]1CC#N` (single isomer, unassigned) [Example 235a]: the IC50 in test [1] (setting [3]) and in test [2] was at most 100 nM in each case.

For `Cc1cccc(-c2c(C(F)(F)F)cc3c(nc(N4CC(C)(N(C)C)C4)c4nnn([C@H]5CCN(C(=O)/C=C/CN(C)C)[C@H](CC#N)C5)c43)c2F)c1Cl` [Example 237, 2-((2S,4S)-4-(7-(2-chloro-3-methylphenyl)-4-(3-(dimethylamino)-3-methylazetidin-1-yl)-6-fluoro-8-(trifluoromethyl)-1H-[1,2,3]triazolo[4,5-c]quinolin-1-yl)-1-((E)-4-(dimethylamino)but-2-enoyl)piperidin-2-yl)acetonitrile], the IC50 in test [1] (setting [3]) and in test [2] was at most 100 nM in each case.

As for `CC#CC(=O)N1CC[C@H](n2cnc3c(N4CC(N(C)C)C4)nc4c(F)c(-c5c(C)c(Cl)cc6[nH]ncc56)c(Cl)cc4c32)C[C@H]1CC#N` [Example 177a, 2-((2S,4S)-1-(but-2-ynoyl)-4-(8-chloro-7-(6-chloro-5-methyl-1H-indazol-4-yl)-4-(3-(dimethylamino)azetidin-1-yl)-6-fluoro-1H-imidazo[4,5-c]quinolin-1-yl)piperidin-2-yl)acetonitrile], the IC50 in test [1] (setting [3]) and in test [2] was at most 100 nM throughout.

On to `CC#CC(=O)N1CC[C@H](n2cnc3c(N4CC(C)(N(C)C)C4)nc4c(F)c(-c5c(C)c(Cl)cc6[nH]ncc56)c(Cl)cc4c32)C[C@H]1CC#N` [Example 81a, 2-((2S,4S)-1-(but-2-ynoyl)-4-(8-chloro-7-(6-chloro-5-methyl-1H-indazol-4-yl)-4-(3-(dimethyl-amino)-3-methylazetidin-1-yl)-6-fluoro-1H-imidazo[4,5-c]quinolin-1-yl)piperidin-2-yl)acetonitrile], for which the IC50 in test [1] (setting [3]) and in test [2] was at most 100 nM each time.

With `Cc1cc2c(nc(-n3ccnc3C)c3nnn([C@H]4CCN(C(=O)/C=C/CN(C)C)[C@H](CC#N)C4)c32)c(F)c1-c1ccccc1C(F)(F)F` (single isomer, unassigned) [Example 167a], the IC50 in test [1] (setting [3]) and in test [2] was at most 100 nM in each case.

Turning to `C=CC(=O)N1CC[C@H](n2cnc3c(N4CC(N(C)C)C4)nc4c(F)c(-c5cncc6ccccc56)c(Cl)cc4c32)C[C@H]1CC#N` (single isomer, unassigned) [Example 73b], the IC50 in test [1] (4 hours incubation) and in test [2] was at most 100 nM throughout.

For the compound `C=CC(=O)N1CC[C@H](n2cnc3c(N4CC(N(C)C)C4)nc4c(F)c(-c5cncc(C)c5C)c(Cl)cc4c32)C[C@H]1CC#N` [Example 110a, 2-((2S,4S)-1-acryloyl-4-(8-chloro-4-(3-(dimethylamino)-azetidin-1-yl)-7-(4,5-dimethylpyridin-3-yl)-6-fluoro-1H-imidazo[4,5-c]quinolin-1-yl)piperidin-2-yl)acetonitrile], the IC50 in test [1] (setting [3]) and in test [2] was at most 100 nM each time.

In the case of `C=CC(=O)N1CC[C@H](n2cnc3c(N4CC(N(C)C)C4)nc4c(F)c(-c5c(C)c(F)cc6[nH]ncc56)c(Cl)cc4c32)C[C@H]1CC#N` [Example 266a, 2-((2S,4S)-1-acryloyl-4-(8-chloro-4-(3-(dimethylamino)azetidin-1-yl)-6-fluoro-7-(6-fluoro-5-methyl-1H-indazol-4-yl)-1H-imidazo[4,5-c]quinolin-1-yl)piperidin-2-yl)acetonitrile], the IC50 in test [1] (setting [3]) and in test [2] was at most 100 nM each time.

As for `CC#CC(=O)N1CC[C@H](n2nnc3c(O[C@@H](C)CN(C)C)nc4c(F)c(-c5cccc(C)c5C)c(C)cc4c32)C[C@H]1CC#N` [Example 146, 2-((2S,4S)-1-(but-2-ynoyl)-4-(4-(((S)-1-(dimethylamino)propan-2-yl)oxy)-7-(2,3-dimethylphenyl)-6-fluoro-8-methyl-1H-[1,2,3]triazolo[4,5-c]quinolin-1-yl)piperidin-2-yl)acetonitrile], the IC50 in test [1] (setting [3]) and in test [2] was at most 100 nM in each case.

As for `C=CC(=O)N1CC[C@H](n2nnc3c(-n4ccnc4C)nc4c(F)c(-c5ccccc5)c(C)cc4c32)C[C@H]1CC#N` [Example 156, 2-((2S,4S)-1-acryloyl-4-(6-fluoro-8-methyl-4-(2-methyl-1H-imidazol-1-yl)-7-phenyl-1H-[1,2,3]triazolo[4,5-c]quinolin-1-yl)piperidin-2-yl)acetonitrile], the IC50 in test [1] (setting [3]) and in test [2] was at most 100 nM each time.

Regarding `C=CC(=O)N1CCC(n2cnc3c(-c4c(O)cccc4F)nc4c(F)c(-c5c(O)cccc5F)c(Cl)cc4c32)CC1` [Example 12, 1-(4-(8-chloro-6-fluoro-4,7-bis(2-fluoro-6-hydroxyphenyl)-1H-imidazo[4,5-c]-quinolin-1-yl)piperidin-1-yl)prop-2-en-1-one], the results for the IC50 in test [1] (setting [3]) and in test [2] were 1000 to 5000 nM and 100 to 1000 nM, respectively.

With `C=CC(=O)N1CC[C@H](n2cnc3c(N4CC(N(C)C)C4)nc4c(F)c(-c5ccccc5C(F)(F)F)c(Cl)cc4c32)C[C@H]1CC#N` [Example 106, 2-((2S,4S)-1-acryloyl-4-(8-chloro-4-(3-(dimethylamino)azetidin-1-yl)-6-fluoro-7-(2-(trifluoromethyl)phenyl)-1H-imidazo[4,5-c]quinolin-1-yl)piperidin-2-yl)acetonitrile], the IC50 in test [1] (setting [3]) and in test [2] was at most 100 nM in each case.

In the case of `COC/C=C/C(=O)N1CC[C@H](n2nnc3c(OC[C@@H]4CCCN4C)nc4c(F)c(-c5cccc(C)c5C)c(C)cc4c32)C[C@H]1CC#N` [Example 140, 2-((2S,4S)-4-(7-(2,3-dimethylphenyl)-6-fluoro-8-methyl-4-(((S)-1-methylpyrrolidin-2-yl)methoxy)-1H-[1,2,3]triazolo[4,5-c]quinolin-1-yl)-1-((E)-4-methoxybut-2-enoyl)piperidin-2-yl)acetonitrile], the IC50 in test [1] (setting [3]) and in test [2] was at most 100 nM throughout.

Consider `Cc1cc2c(nc(OC[C@@H]3CCCN3C)c3nnn([C@H]4CCN(C(=O)/C=C/CN(C)C)[C@H](CC#N)C4)c32)c(F)c1-c1ccccc1C(F)(F)F` [Example 158a, 2-((2S,4S)-1-((E)-4-(dimethylamino)but-2-enoyl)-4-(6-fluoro-8-methyl-4-(((S)-1-methylpyrrolidin-2-yl)methoxy)-7-(2-(trifluoromethyl)phenyl)-1H-[1,2,3]triazolo[4,5-c]quinolin-1-yl)piperidin-2-yl)acetonitrile], for which the IC50 in test [1] (setting [3]) and in test [2] was at most 100 nM in each case.

As for `CC#CC(=O)N1CC[C@H](n2nnc3c(N4CC(N(C)C)C4)nc4c(F)c(-c5cccc(C)c5C)c(C)cc4c32)C[C@H]1CC#N` [Example 207, 2-((2S,4S)-1-(but-2-ynoyl)-4-(4-(3-(dimethylamino)azetidin-1-yl)-7-(2,3-dimethylphenyl)-6-fluoro-8-methyl-1H-[1,2,3]triazolo[4,5-c]quinolin-1-yl)piperidin-2-yl)acetonitrile], the IC50 in test [1] (setting [3]) and in test [2] was at most 100 nM throughout.

Consider `C=CC(=O)N1CC[C@H](n2nnc3c(O[C@@H](C)CN(C)C)nc4c(F)c(-c5ccc(F)cc5)c(Cl)cc4c32)C[C@H]1CC#N` [Example 128, 2-((2S,4S)-1-acryloyl-4-(8-chloro-4-(((S)-1-(dimethylamino)propan-2-yl)oxy)-6-fluoro-7-(4-fluorophenyl)-1H-[1,2,3]triazolo[4,5-c]quinolin-1-yl)piperidin-2-yl)acetonitrile], for which the IC50 in test [1] (setting [3]) and in test [2] was at most 100 nM in each case.

As to `C=CC(=O)N1C[C@H](n2cnc3c(N4CC(N(C)C)C4)nc4c(F)c(-c5cc(O)cc6ccccc56)c(Cl)cc4c32)C[C@@H]1CC#N` [Example 32, 2-((2R,4R)-1-acryloyl-4-(8-chloro-4-(3-(dimethylamino)azetidin-1-yl)-6-fluoro-7-(3-hydroxynaphthalen-1-yl)-1H-imidazo[4,5-c]quinolin-1-yl)pyrrolidin-2-yl)acetonitrile], the IC50 in test [1] (setting [3]) and in test [2] was at most 100 nM in each case.

As for `C=CC(=O)N1CC[C@H](n2nnc3c(N4CC(N(C)C)C4)nc4c(Cl)c(-c5cc(F)cc6cccnc56)c(Cl)cc4c32)C[C@H]1CC#N` (single isomer, unassigned) [Example 284a], the IC50 in test [1] (setting [3]) and in test [2] was at most 100 nM throughout.

For `Cc1c(Cl)cccc1-c1c(Cl)cc2c(nc(OC[C@@H]3CCCN3C)c3nnn([C@H]4CCN(C(=O)/C=C/CN(C)C)[C@H](CC#N)C4)c32)c1F` [Example 88, 2-((2S,4S)-4-(8-chloro-7-(3-chloro-2-methylphenyl)-6-fluoro-4-(((S)-1-methylpyrrolidin-2-yl)methoxy)-1H-[1,2,3]triazolo[4,5-c]quinolin-1-yl)-1-((E)-4-(dimethylamino)but-2-enoyl)piperidin-2-yl)acetonitrile], the IC50 in test [1] (setting [3]) and in test [2] was at most 100 nM each time.

Consider `C=CC(=O)N1CC[C@H](n2cnc3c(N4CC(N(C)C)C4)nc4c(F)c(-c5ccc(C)cc5C)c(Cl)cc4c32)C[C@H]1CC#N` [Example 59, 2-((2S,4S)-1-acryloyl-4-(8-chloro-4-(3-(dimethylamino)azetidin-1-yl)-7-(2,4-dimethylphenyl)-6-fluoro-1H-imidazo[4,5-c]quinolin-1-yl)piperidin-2-yl)acetonitrile], for which the IC50 in test [1] (setting [3]) and in test [2] was at most 100 nM each time.
